Reference: patent US20090247495A1, “CU[…] AND USES THEREOF” (priority 2007, published 2009)

Tested on: Human cancer cell lines from the 59-NCI Cancer Cell Line Panel
Test: Apoptosis (Annexin V-FITC / PI) by flow cytometry, 18 selected NCI panel cell lines
Format: cell-based
Conditions: 48 hours; GI50, ½ GI50 and ¼ GI50
Protocol: Apoptosis is the important mechanism for cell death in normal cells. In cancer cells, this mechanism fails and cells proliferate without control. Human cancer cell lines from the 59-NCI Cancer Cell Line Panel including leukemia, melanoma and cancers of breast, brain, colon, lung, ovary, prostate and kidney were purchased from the National Institute of Cancer. […] They were treated with cucurbitacin B and cucurbitacin D at three different concentrations to elucidate their ability to induce any changes in cell cycle.
Cancer cell lines were maintained in RPMI 1640 supplemented with 5% Fetal Bovine Serum, 2 mM L-glutamine and 1% Penicillin/Streptomycin at 37° C. with 5% CO2. Cells were inoculated into tissue culture flask at cell concentrations from 50000 to 400,000 cells/ml according to the NCI guideline. The cells were incubated at 37° C. with 5% CO2 for 24 hours. Cucurbitacin B and cucurbitacin D were added to the cells of final concentrations ranging from 6 to 350 nM (GI50, ½ GI50 and ¼ GI50 of particular cell line) for 48 hours at 37° C. with 5% CO2. Cells (3×10^5) were then harvested and stained with 5 μl Annexin V-FITC and 10 μl propidium iodine (Becton Dickinson, CA, USA) for 15 minutes at room temperature. Ten thousands events were collected by the FACScaliber and the percentage of different cell populations were analyzed by the CellQuest™ software (Becton Dickinson).

Structure (SMILES): CC(=O)OC(C)(C)/C=C/C(=O)[C@](C)(O)C1[C@H](O)C[C@@]2(C)C3CC=C4C(C[C@H](O)C(=O)C4(C)C)[C@]3(C)C(=O)C[C@]12C (stereo partly shown) [cucurbitacin B]
- cell lines in which apoptosis was induced: 9 out of 18
